# Assays:
# [1] = Kinematic viscosity (ASTM D-445); format: physicochemical
# Description: (§1) The properties listed in Tables 1 and 2 were determined as follows. Pour Point was determined using ASTM # D-97. Brookfield Viscosity at -25° C. was determined using ASTM # D-2983. Kinematic viscosity (@ 40 and 100° C.) was determined using ASTM # D-445. Viscosity index (VI) was determined using ASTM # D-2270. Biodegradation was determined using the Modified Sturm test (OECD Test No. 301B). Solubility with dispersant was determined by blending the desired ratios and looking for haze, cloudiness, two-phases, etc. Engine wear was determined using the NMMA Yamaha CE50S Lubricity test. Oxidation induction time was determined using a high pressure differential scanning calorimeter (HPDSC) having isothermal/isobaric conditions of 220° C. and 500 psi (3.445 MPa) air, respectively. Aquatic toxicity was determined using the Dispersion Aquatic Toxicity test. The acid number was determined using ASTM # D-664. The hydroxyl number of the respective samples was determined by infrared spectroscopy.
# [2] = Acid number (ASTM D-664); format: physicochemical
# Description: as §1
# [3] = Pour Point (ASTM D-97); format: physicochemical
# Description: as §1
# [4] = Viscosity index (ASTM D-2270); format: physicochemical
# Description: as §1
# [5] = Oxidation induction time by HPDSC; format: physicochemical; conditions: 220° C., 500 psi air
# [6] = Brookfield Viscosity at -25° C. (ASTM D-2983); format: physicochemical
# Description: as §1
# [7] = background; cited from earlier work
Vis @ -25° C. [6],Compound,Vis. @ 40° C. [1] [cSt],Vis. @ 100° C. [1] [cSt],Acid Number [2] [mgKOH/g],Pour Point [3],Viscosity Index [4],Oxidation Induction Time [5] [min],-25° C. Viscosity ([6]; Tables 2 and 4),viscosity at 40° C. [7]
–,triester of trimethylolpropane and isostearic acid [TMP/iC18],78.34,11.94,1.9,-20 °C,147,4.29,"358,000 cps",–
solid,CCCCCCCCCCCOC(=O)CCCCC(=O)OCCCCCCCCCCC [Di-undecyladipate],13.92,2.80,–,+21 °C,–,–,–,–
–,CCCCCCCCCC(=O)OCC(COC(=O)CCCCCCCCC)(COC(=O)CCCCCCCCC)COC(=O)CCCCCCCCC [ester of pentaerythritol and n-C10 acid],–,–,–,–,–,–,–,about 38.6 cSt

# Source: patent US5681800A, “Biodegradable branched synthetic ester base stocks and lubricants formed therefrom” (priority 1995, dated 1997)
